Data set [1] relates to HCT-116. The experiment in a line: Induction of spliceosome function impairment in human HCT-116 cells assessed as increase in NCKAP1L RI transcript at 1 to 10 uM incubated for 12 hrs by qRT-PCR analysis. The format is functional, cell-based. Conditions: dose 1-10 µM. On the technique in general: In qPCR the cycle at which signal appears reflects the starting amount.
The subject of data set [2] is HCT-116. As to the kind of experiment: Induction of RBM39 degradation in human HCT-116 cells at 1 uM incubated for 3 to 6 hrs by Western blot analysis. The format is cell-based. The note with it: time 3-6 hrs. In general terms: In western blotting, separated proteins are transferred to a membrane and probed.
The test system of data set [3] is HCT-116. As to the kind of experiment: Effect on DCAF15 expression in human HCT-116 cells at 0.1 to 5 uM incubated for 24 hrs by Western blot analysis. It is filed as functional, cell-based. The note with it: dose 0.1-5 µM.
Data set [4] deals with HCT-116. As to the kind of experiment: Induction of spliceosome function impairment in human HCT-116 cells assessed as fold increase in CUL4A RI transcript at 1 to 10 uM incubated for 12 hrs by qRT-PCR analysis relative to control. Conditions: dose 1-10 µM. The format is functional.
Data set [5] has as its system HCT-116. The experiment in a line: Induction of spliceosome function impairment in human HCT-116 cells assessed as fold increase in NCKAP1L RI transcript at 1 to 10 uM incubated for 12 hrs by qRT-PCR analysis relative to control. The format is functional. Conditions: dose 1-10 µM.
The subject of data set [6] is HCT-116. As to the kind of experiment: Induction of spliceosome function impairment in human HCT-116 cells assessed as fold increase in PRPF38A RI transcript at 1 to 10 uM incubated for 12 hrs by qRT-PCR analysis relative to control. It is filed as functional. Conditions: dose 1-10 µM.
In data set [7] the test system is HCT-116. The experiment in a line: Induction of spliceosome function impairment in human HCT-116 cells assessed as fold decrease in ZNF207 exon8-exon9 RNA level at 1 to 10 uM incubated for 12 hrs by qRT-PCR analysis relative to control. It is filed as functional. The note with it: dose 1-10 µM.
Data set [8] relates to HCT-116. The experiment in a line: Antitumor activity against human HCT-116 cells xenografted in BALB/c nude mouse at 150 mg/kg, po qd treated for 17 days relative to control. It is filed as functional. Conditions: HCT-116, 408 h, time 17 day, read-out: TGI. On the technique in general: Xenograft models place foreign cells or tissue in a host animal.
Data set [9] is described as follows: AUC (0 to t) in ICR mouse at 15 mg/kg, po. It is filed as ADME, organism-based. The note with it: in vivo.
For data set [10], the system named is HCT-116. As to the kind of experiment: Effect on RNA splicing in human HCT-116 cells assessed as CEP192 gene skipping exons at 2 uM incubated for 12 hrs by RNA-seq analysis. It is filed as functional, cell-based.
Data set [11] relates to HCT-116. The experiment in a line: Effect on RNA splicing in human HCT-116 cells assessed as CEP192 gene retention of introns at 2 uM incubated for 12 hrs by RNA-seq analysis. It is filed as functional, cell-based.
Data set [12] deals with HCT-116. As to the kind of experiment: Effect on RNA splicing in human HCT-116 cells assessed as CEP192 gene skipping exons incubated for 12 hrs by PCR analysis. Conditions: dose <= 10.0 µM. It is filed as functional, cell-based.
For data set [13], the system named is HCT-116. The experiment in a line: Effect on RNA splicing in human HCT-116 cells assessed as CEP192 gene retention of introns incubated for 12 hrs by PCR analysis. It is filed as functional, cell-based. The note with it: dose <= 10.0 µM.
The test system of data set [14] is HCT-116. As to the kind of experiment: Effect on RNA splicing in human HCT-116 cells assessed as CEP192 gene skipping exons up to 10 uM by PCR analysis. Conditions: time 1-24 hrs. It is filed as functional, cell-based.
The subject of data set [15] is HCT-116. The experiment in a line: Effect on RNA splicing in human HCT-116 cells assessed as CEP192 gene retention of introns up to 10 uM by PCR analysis. It is filed as functional, cell-based. The note with it: time 1-24 hrs.
The test system of data set [16] is K562. As to the kind of experiment: Effect on RNA splicing in human K562 cells assessed as CEP192 gene skipping exons incubated for 12 hrs by PCR analysis. The note with it: dose 0.1-10 µM. The format is functional, cell-based.
The subject of data set [17] is MV4-11. The experiment in a line: Effect on RNA splicing in human MV4-11 cells assessed as CEP192 gene retention of introns incubated for 12 hrs by PCR analysis. Conditions: dose 0.1-10 µM. The format is functional, cell-based.
The test system of data set [18] is HL-60. The experiment in a line: Effect on RNA splicing in human HL-60 cells assessed as CEP192 gene skipping exons incubated for 12 hrs by PCR analysis. It is filed as functional, cell-based. The note with it: dose 0.1-10 µM.
The subject of data set [19] is HL-60. The experiment in a line: Effect on RNA splicing in human HL-60 cells assessed as CEP192 gene retention of introns incubated for 12 hrs by PCR analysis. The format is functional, cell-based. The note with it: dose 0.1-10 µM.
Data set [20] has as its system Kasumi 1. The experiment in a line: Effect on RNA splicing in human Kasumi 1 cells assessed as CEP192 gene skipping exons incubated for 12 hrs by PCR analysis. The format is functional, cell-based. Conditions: dose 0.1-10 µM.
Data set [21] relates to MOLM-13. As to the kind of experiment: Effect on RNA splicing in human MOLM-13 cells assessed as CEP192 gene retention of introns incubated for 12 hrs by PCR analysis. The format is functional, cell-based. Conditions: dose 0.1-10 µM.
Data set [22] relates to CEM/C1. As to the kind of experiment: Effect on RNA splicing in human CEM/C1 cells assessed as CEP192 gene skipping exons incubated for 12 hrs by PCR analysis. It is filed as functional, cell-based. The note with it: dose 0.1-10 µM.
The nature of data set [23]: Effect on RNA splicing in human K562 cells assessed as number of skipping exons at 2 uM incubated for 12 hrs by RNA-seq analysis. It is filed as functional.
Data set [24] can be described thus: Effect on RNA splicing in human K562 cells assessed as number of mutually exclusive exons at 2 uM incubated for 12 hrs by RNA-seq analysis. It is filed as functional.
Data set [25] can be described thus: Effect on RNA splicing in human K562 cells assessed as number of retention of introns at 2 uM incubated for 12 hrs by RNA-seq analysis. It is filed as functional.
Data set [26] in a line: Effect on RNA splicing in human K562 cells assessed as number of alternative 3' splice sites at 2 uM incubated for 12 hrs by RNA-seq analysis. It is filed as functional.
Data set [27] is described as follows: Effect on RNA splicing in human K562 cells assessed as number of alternative 5' splice sites at 2 uM incubated for 12 hrs by RNA-seq analysis. The format is functional.
The nature of data set [28]: Effect on RNA splicing in human K562 cells assessed as skipping exons at 2 uM incubated for 12 hrs by RNA-seq analysis relative to control. It is filed as functional.
A short description of data set [29]: Effect on RNA splicing in human K562 cells assessed as mutually exclusive exons at 2 uM incubated for 12 hrs by RNA-seq analysis relative to control. The format is functional.
The nature of data set [30]: Effect on RNA splicing in human K562 cells assessed as retention of introns at 2 uM incubated for 12 hrs by RNA-seq analysis relative to control. It is filed as functional.
The nature of data set [31]: Effect on RNA splicing in human K562 cells assessed as alternative 3' splice sites at 2 uM incubated for 12 hrs by RNA-seq analysis relative to control. The format is functional.
The test system of data set [32] is K562. The experiment in a line: Antiproliferative activity against human K562 cells assessed as inhibition of cell growth incubated for 4 days by CCK8 assay. The format is functional, cell-based. The note with it: time 4.0 day.
Data set [33] deals with MV4-11. The experiment in a line: Antiproliferative activity against human MV4-11 cells assessed as inhibition of cell growth incubated for 4 days by CCK8 assay. The note with it: time 4.0 day. It is filed as functional, cell-based.
In data set [34] the test system is Kasumi 1. The experiment in a line: Antiproliferative activity against human Kasumi 1 cells assessed as inhibition of cell growth incubated for 4 days by CCK8 assay. Conditions: time 4.0 day. The format is functional, cell-based.
The subject of data set [35] is RS4-11. The experiment in a line: Antiproliferative activity against human RS4;11 cells assessed as inhibition of cell growth incubated for 4 days by CCK8 assay. It is filed as functional, cell-based. The note with it: time 4.0 day.
Data set [36] has as its system HCT-116. The experiment in a line: Induction of cell cycle arrest in human HCT-116 cells assessed as accumulation at G2/M phase at 1 uM incubated for 24 hrs by PI staining based flow cytometry relative to control. The format is functional.
The subject of data set [37] is HCT-116. The experiment in a line: Induction of cell cycle arrest in human HCT-116 cells assessed as accumulation at G2/M phase at 1 uM incubated for 48 hrs by PI staining based flow cytometry relative to control. The format is functional.
The subject of data set [38] is K562. As to the kind of experiment: Induction of RBM39 degradation in human K562 cells incubated for 24 hrs by Western blot analysis. It is filed as cell-based. The note with it: dose 1-10 µM.
The test system of data set [39] is Kasumi 1. The experiment in a line: Induction of RBM39 degradation in human Kasumi 1 cells incubated for 24 hrs by Western blot analysis. It is filed as cell-based.
Data set [40] deals with MOLM-13. The experiment in a line: Induction of RBM39 degradation in human MOLM-13 cells incubated for 24 hrs by Western blot analysis. It is filed as cell-based.

Calls of active or inactive are those of the source. The rule behind the calls is not given here.

Take `NS(=O)(=O)c1ccc(S(=O)(=O)Nc2cccc3c(Cl)c[nH]c23)cc1` [INDISULAM]: the result in data set [1] was Active.

As for `Cc1ccc(NS(=O)(=O)c2cccc(NC(=O)C(=O)N3CCC[C@@H]3CO)c2)c2[nH]cc(C#N)c12`, the Activity result in [2] is “Active; Compound Exhibited Its Efficiency Steadily Increasing From 3 To 48 Hrs”; in data set [10] it was “Active; Observed Skipping Of Exons 42, 28 And 13”; in data set [11], “Active; Observed Retention Of Introns Between Exons 27 And 28”; in [12], “Dose-dependent-effect; Observed Skipping Of Exons 42, 28 And 13”; in data set [13], “Dose-dependent-effect; Observed Retention Of Introns Between Exons 27 And 28”; in [14], “Time-dependent-effect; Observed Skipping Of Exons 42, 28 And 13”. In addition, the Activity entry is “Time-dependent-effect; Observed Retention Of Introns Between Exons 27 And 28” in [15]; “Dose-dependent-effect; Observed Skipping Of Exons 42, 28 And 13” in [16]; “Dose-dependent-effect; Observed Retention Of Introns Between Exons 27 And 28” in data set [17]; “Dose-dependent-effect; Observed Skipping Of Exons 42, 28 And 13” in data set [18]; “Dose-dependent-effect; Observed Retention Of Introns Between Exons 27 And 28” in data set [19]; “Dose-dependent-effect; Observed Skipping Of Exons 42, 28 And 13” in [20]. Further, the Activity result in [21] is listed as “Dose-dependent-effect; Observed Retention Of Introns Between Exons 27 And 28”; in [22], “Dose-dependent-effect; Observed Skipping Of Exons 42, 28 And 13”; in [23], 12285; in data set [24] it was 1801; in data set [25], 1454; in data set [26] it was 1232. In addition, the Activity in data set [27] is recorded as 633; in [28] it was 70.6%; in data set [29] it was 10.3%; in data set [30], 8.4%; in [31] it was 7.1%; in [36], 33%. Besides, the Activity was 58% in data set [37], “Dose-dependent-effect” in data set [38], “Dose-dependent-effect” in data set [39] and “Dose-dependent-effect” in data set [40]. Also, the result in [3] was inactive. Moreover, the “fold change (FC)” value in data set [4] was 3; in [5], 3; in data set [6], 3; in data set [7] it was 10. For the same compound, in data set [8], the inhibition in vivo at 150 mg/kg was 72%. Besides, in data set [9], the AUC(0-t) (usually exposure summed from dosing to a finite time, without extrapolation to infinity) stood at 3480 ng·h/mL. Besides, the inhibition entry in [32], in [33], in data set [34] and in [35] was “Active” throughout.
